Patent US12535483B2, “Norovirus-binding peptide” (Kao Corporation, priority 2019, dated 2026)

Experiments:
GII.3 VLP = test: KD value by bio-layer interferometry (BLI, BLItz), peptide on SA chip, GII.3 VLP; format: binding, norovirus GII.3 TCH strain; conditions: for Kd: GII.3 VLP 1 and 0.1 mg/mL, 100 μM peptide bound to SA chip, KD calculated from Ka and Kd values; for ka / kd: GII.3 VLP; for ka: association 90 sec; for kd: dissociation in PBS 60 sec
Method: (§1) <Calculation of KD Value by Bio-Layer Interferometry: BLI Method>
(§2) The apparatus used was BLItz™ (manufactured by ForteBio). The tip of SA chip (manufactured by ForteBio) was kept in contact with purified water for 1 minute for hydration and was then kept in contact with a 1% BSA aqueous solution for 1 hour for blocking. The SA chip subjected to blocking treatment was set to the measuring unit of the BLItz™ main body, and measurement was performed according to the program shown in Table 14. The peptides of SEQ ID NOs: 43, 48, 52, 59, 131, 143, 150, 154, 155, 156, 163, and 172 were used, and the concentration was adjusted to 100 µM. The concentrations of each of the GII.3 and GII.17 VLPs were adjusted to 1 and 0.1 mg/mL. The measurement data were analyzed using the attached software, and the KD value was calculated based on the Ka and Kd values.

GII.17 VLP = test: KD value by bio-layer interferometry (BLI, BLItz), peptide on SA chip, GII.17 VLP; format: binding, norovirus GII.17 Saitama strain; conditions: for Kd: GII.17 VLP 1 and 0.1 mg/mL, 100 μM peptide bound to SA chip, KD calculated from Ka and Kd values; for ka / kd: GII.17 VLP; for ka: association 90 sec; for kd: dissociation in PBS 60 sec
Method: as §1, §2

Sequence | Kd (GII.3 VLP) [µM] | ka (GII.3 VLP) [M⁻¹ s⁻¹] | kd (GII.3 VLP) [s⁻¹] | Kd (GII.17 VLP) [µM] | ka (GII.17 VLP) [M⁻¹ s⁻¹] | kd (GII.17 VLP) [s⁻¹]
YVVASKSNRL [No. 143] | 0.0135 | 325000 | 0.0044 | – | – | –
GCVGDLYCSA [No. 172] | 69.3 | 189 | 0.0131 | – | – | –
YRRSKSEIFV [No. 59] | 0.00887 | 805000 | 0.00714 | 0.383 | 134000 | 0.0511
SVMVTRSLFG [No. 163] | 0.00766 | 1.03e+06 | 0.00786 | – | 110000 | 0.0185
VVGFGRRSLF [No. 156] | 1.06 | 67300 | 0.0713 | 234 | 398 | 0.0931
YVIRNSDRHN [No. 43] | 0.0672 | 1.18e+06 | 0.0793 | 234 | 822 | 0.192
NFRVPIRFTH [No. 131] | 157 | 1660 | 0.262 | – | – | –
ECMGRRWMSS [No. 154] | 0.123 | 141000 | 0.0173 | 0.628 | 49500 | 0.00205
KYRATICHTV [No. 52] | 0.0138 | 747000 | 0.0103 | 0.0179 | 1.29e+06 | 0.0232
ICSSWFPSVH [No. 48] | 0.0303 | 810000 | 0.0246 | 0.0766 | 1.28e+06 | 0.0978
VCVDNDISMS [No. 150] | 0.437 | 27000 | 0.0118 | 2510 | 102 | 0.255
VELFLLTSSC [No. 155] | 803 | 115 | 0.0926 | – | – | –
